Bridge positions count the residues as written; N and C are the ends. Ends that are not written are not given here. Peptide text beside a SMILES is read from it.
Legend:
[1] = molecular target: PA1b-binding site; test: Affinity for the PA1b-binding site, ligand binding assay with 125I-labeled toxin; settings: ligand binding with toxin labeled with iodine 125I; dash = no binding in the range of concentrations tested
Method: The affinity for the PA1b-binding site was determined by means of ligand binding assays using a toxin labeled with iodine ^125I, as previously described (Gressent et al., Eur J Biochem, 270, 2429-35, 2003).

[2] = system: Spodoptera frugiperda Sf9 cells; test: Entomotoxicity (LC50) on cultured Sf9 cells, Celltiter-Blue viability test; assay type: cell-based; settings: for toxicity / entomotoxic properties (in words): Sf9 cells, compared with reference PA1b
Method: The entomototoxic properties were determined by evaluation of the LC50 (50% lethal concentration) on cultures of Spodoptera frugiperda Sf9 cells, as described by Rahioui et al. (Biochimie, 89, 1539-43, 2007). The cells were cultured at 27° C. in medium from Lonza supplemented with 5% fetal calf serum (FCS) and 0.1% gentamicin, then seeded into 96-well plates, 24 h before the experiments (15,000 cells/wells) and exposed to increasing concentrations of synthetic peptide. After 24 h, the cell viability was determined using the Celltiter-Blue viability test (Promega), in accordance with the manufacturer's instructions. After the addition of the dye, the cells were incubated at 27° C. for 4 h. The absorbance was then measured at 570 and 600 nm using a microplate reader (MR 7000, Dynatech Laboratories Inc., USA).

Question: “DECWGPCSVLQTPPCPLSKCYCIPLFLVVGYCSHASS [DS37]” was tested. Which Ki [1] did it give?
Answer: Its Ki is 694 ± 2 nM.

Question: And the “toxicity / entomotoxic properties (in words)” value [2]?
Answer: The value was “do not have entomotoxic properties”.

Question: What does the source list for “EFCSSVGSFCSPFNTNPCGYLGNCRCVPYYLYGGTCENPFG (disulfide 3-24, 10-26, 18-36 (inferred)) [EG41]”?
Answer: Ki [1]: 72.8 ± 2.7 nM; toxicity / entomotoxic properties (in words) [2]: toxicity comparable to that of the reference PA1b peptide

Question: `CC[C@H](C)[C@@H]1NC(=O)[C@H](C(C)C)NC(=O)[C@H](CC(C)C)NC(=O)CNC(=O)[C@H](C(C)C)NC(=O)[C@@H]2CCCN2C(=O)[C@H]([C@@H](C)CC)NC(=O)[C@@H]2CSSC[C@@H]3NC(=O)[C@H](C(C)C)NC(=O)CNC(=O)[C@H](CC(N)=O)NC(=O)[C@@H](NC(=O)[C@H](CO)NC(=O)[C@H](C)N)CSSC[C@H](NC(=O)[C@H](C)NC(=O)[C@H](CO)NC(=O)[C@H]([C@@H](C)O)NC(=O)CNC(=O)[C@H](CSSC[C@@H](C(=O)N[C@@H](CCCNC(=N)N)C(=O)N[C@@H](CC(N)=O)C(=O)N4CCC[C@H]4C(=O)N[C@@H](CO)C(=O)NCC(=O)O)NC(=O)[C@H](Cc4ccc(O)cc4)NC(=O)CNC1=O)NC(=O)[C@@H]1CCCN1C(=O)[C@@H]1CCCN1C(=O)[C@H](CCSC)NC(=O)[C@H](CCC(=O)O)NC(=O)[C@H](Cc1ccccc1)NC(=O)[C@@H]1CCCN1C(=O)[C@H](CO)NC3=O)C(=O)N[C@@H](CCCNC(=N)N)C(=O)N2` [PA1b, reference compound] (H-ASCNGVCSPFEMPPCGTSACRCIPVGLVIGYCRNPSG-OH; disulfide 3-20, 7-22, 15-32 (inferred); N-terminus and C-terminus assumed) was tested. Which Ki [1] did it give?
Answer: The Ki was 17 ± 1.1 nM.

Question: With “QSCIGFCSVFDSKPLCGSSRCRCNKPLNNPFVGICERRPST [QT41]” as the compound, how does the “toxicity / entomotoxic properties (in words)” value [2] read?
Answer: The value was “do not have entomotoxic properties”.

Question: Which results are given for `CC[C@H](C)[C@@H]1NC(=O)[C@H](Cc2ccccc2)NC(=O)[C@@H]2CSSC[C@@H]3NC(=O)[C@H](C)NC(=O)[C@H](CCC(=O)O)NC(=O)CNC(=O)[C@@H](NC(=O)[C@H](CCCCN)NC(=O)[C@H](C)N)CSSC[C@H](NC(=O)CNC(=O)[C@H](CC(=O)O)NC(=O)CNC(=O)[C@H](C)NC(=O)[C@H](CC(N)=O)NC(=O)[C@H](CSSC[C@@H](C(=O)N[C@@H](C)C(=O)N[C@@H](CCC(N)=O)C(=O)N[C@@H](CC(C)C)C(=O)N[C@@H](CO)C(=O)N[C@H](C(=O)O)[C@@H](C)O)NC(=O)[C@H](Cc4ccccc4)NC(=O)CNC(=O)[C@@H]4CCCN4C(=O)[C@H](CC(C)C)NC(=O)[C@H]([C@@H](C)O)NC(=O)[C@H](CC(C)C)NC(=O)[C@H](Cc4ccc(O)cc4)NC(=O)[C@H](C)NC(=O)[C@H](CC(=O)O)NC(=O)[C@H]([C@@H](C)O)NC1=O)NC(=O)[C@H](Cc1ccccc1)NC(=O)[C@H](CC(N)=O)NC(=O)[C@H](Cc1ccccc1)NC(=O)[C@H](CCC(N)=O)NC(=O)[C@H]([C@@H](C)O)NC(=O)[C@H](CC(=O)O)NC3=O)C(=O)N[C@@H](CCCNC(=N)N)C(=O)N2` [AS40] (H-AKCGEACDTQFNFCNAGDGCRCFITDAYLTLPGFCAQLST-OH; disulfide 3-20, 7-22, 14-35 (inferred); N-terminus and C-terminus assumed)?
Answer: Ki [1]: 10.3 ± 2 nM; toxicity / entomotoxic properties (in words) [2]: toxicity comparable to that of the reference PA1b peptide

Question: Which Ki [1] does the source give for “ASCPNVGAVCSPFETKPCGNVKDCRCLPWGLFFGTCINPTG (disulfide 3-24, 10-26, 18-36) [AG41]” here?
Answer: The Ki was 1.3 ± 0.6 nM.

Question: What about the “toxicity relative to PA1b” value ([2]; fold versus pea PA1b) of the same compound?
Answer: The value was “close to ten times higher than that of PA1b”.

Question: “GQCARVGMRCSRALPNPCGDIVTCRCVHLHLVGSTCIDYTGDGL [GL44]” was tested. Which “toxicity / entomotoxic properties (in words)” value [2] did it give?
Answer: The value was “do not have entomotoxic properties”.

Question: Which Ki [1] does the source give for `CC[C@H](C)[C@@H]1NC(=O)CNC(=O)[C@H](CO)NC(=O)[C@@H](NC(=O)[C@H](CC(=O)O)NC(=O)[C@H](C)N)CSSC[C@@H]2NC(=O)[C@H](CC(=O)O)NC(=O)[C@H](CO)NC(=O)[C@H](CO)NC(=O)[C@H](CCCNC(=N)N)NC(=O)[C@@H]3CSSC[C@@H](C(=O)N[C@H](C(=O)N[C@@H](CC(N)=O)C(=O)N4CCC[C@H]4C(=O)N[C@H](C(=O)N[C@@H](CO)C(=O)O)[C@@H](C)CC)[C@@H](C)CC)NC(=O)[C@H](Cc4ccccc4)NC(=O)CNC(=O)CNC(=O)[C@H]([C@@H](C)CC)NC(=O)[C@H](CC(C)C)NC(=O)[C@H](C)NC(=O)[C@H]([C@@H](C)CC)NC(=O)[C@@H]4CCCN4C(=O)[C@H]([C@@H](C)CC)NC(=O)[C@H](CSSC[C@H](NC1=O)C(=O)N[C@@H](CO)C(=O)N1CCC[C@H]1C(=O)N[C@@H](Cc1ccccc1)C(=O)N[C@@H](CCC(=O)O)C(=O)N[C@@H](CCSC)C(=O)N1CCC[C@H]1C(=O)N1CCC[C@H]1C(=O)N3)NC(=O)[C@H](CCCNC(=N)N)NC2=O` [AS37] (H-ADCSGICSPFEMPPCRSSDCRCIPIALIGGFCINPIS-OH; disulfide 3-20, 7-22, 15-32 (inferred); N-terminus and C-terminus assumed) here?
Answer: Its Ki is 15 ± 2 nM.

Question: What about the “toxicity / entomotoxic properties (in words)” value [2] of the same compound?
Answer: The value was “toxicity comparable to that of the reference PA1b peptide”.

Source: US9994623B2, “Entomotoxic polypeptides” (INSTITUT NATIONAL DE LA RECHERCHE AGRONOMIQUE, priority 2013, dated 2018)
